Assay results taken from article PMC9161086, “Water-Soluble Trichogin GA IV-Derived Peptaibols Protect Tomato Plants From Botrytis cinerea Infection With Limited Impact on Plant Defenses” (Frontiers in Plant Science, 2022).

Assay: Hydrophilicity evaluated from HPLC retention times
Assay type: physicochemical
Settings: comparison to native Trichogin GA IV, C18 column Phenomenex Jupiter 5 μm, 300 Å, 250 × 4.5 mm, gradient 60%–100% B in 30 min, A H2O/CH3CN 9:1 0.05% TFA, B CH3CN/H2O 9:1 0.05% TFA

For “1-octanoyl-Aib-Gly-Leu-Aib-Gly-Gly-Leu-Aib-Gly-Ile-Lol [Trichogin GA IV, 11-residue lipopeptaibol naturally produced by Trichoderma longibrachiatum]”, which Hydrophilicity is on record?
Its Hydrophilicity is “Native”.
